Reference: patent US9890407B2, “Method for synthesizing cellulose in vitro” (University of Virginia Patent Foundation, priority 2013, dated 2018)

Legend:
[1] = target: T1, Rhodobacter sphaeroides BcsA-B complex, BcsA variant R580A (Arg580Ala; parent BcsA SEQ ID NO: 1), BcsB SEQ ID NO: 3 (Cereibacter sphaeroides, UniProt Q3J125, R580A); experiment: Isothermal titration calorimetry, c-di-GMP binding to the BcsA-R580A mutant
Description: (§1) FIG. 23A-23B (also referred to as Example 2, Supplementary FIG. 5): Cellulose synthesis activity of BcsA mutants and c-di-GMP binding. (FIG. 23A) Cellulose synthesis assays were performed in inverted membrane vesicles and proteoliposomes as described in the Experimental Procedures. The amount of ^3H-glucose-labeled cellulose produced by each mutant is quantified and graphed. 1 μl of IMV's were used for each mutant. For PL assays, the protein concentrations were matched based on UV absorbance and SDS-PAGE followed by Coomassie staining. The apparent lower activity of the R580A mutant may be due to differences in the relative orientation of the enzyme in the PLs or its overall stability. +/−: Experiments performed in the presence and absence of 30 μM c-di-GMP. All data represent the means±SD for 3 technical replicates. (FIG. 23B) Binding of c-di-GMP to the BcsA-R580A mutant. The ability of the R580A mutant to bind c-di-GMP was assessed using ITC.
(§2) The protein was purified in 1 mM LFCE14 as described above. Measurements were carried out at 25° C. in a MicroCal iTC200 system (GE Healthcare) with 250 μl of BcsA-B in the cell at 9.3 μM for WT and 11 μM for the BcsA-Arg580Ala complex and 400 μM c-di-GMP in the syringe. An initial 0.5 μl injection was followed by 39 1 μl injections spaced 180 s apart with stirring at 700 rpm. The data were fit using Origin 7.0 as provided by the manufacturer.

[2] = target: T2, Rhodobacter sphaeroides BcsA-B complex, wild type (WT), BcsA SEQ ID NO: 1, BcsB SEQ ID NO: 3 (Cereibacter sphaeroides, UniProt Q3J125); experiment: Isothermal titration calorimetry, c-di-GMP binding to wild type BcsA-B; settings: ITC, 1 mM LFCE14, 25° C.
T2 construct: E. coli; purified in LFCE14 detergent for ITC
T2 sequence (Q3J125 1-788): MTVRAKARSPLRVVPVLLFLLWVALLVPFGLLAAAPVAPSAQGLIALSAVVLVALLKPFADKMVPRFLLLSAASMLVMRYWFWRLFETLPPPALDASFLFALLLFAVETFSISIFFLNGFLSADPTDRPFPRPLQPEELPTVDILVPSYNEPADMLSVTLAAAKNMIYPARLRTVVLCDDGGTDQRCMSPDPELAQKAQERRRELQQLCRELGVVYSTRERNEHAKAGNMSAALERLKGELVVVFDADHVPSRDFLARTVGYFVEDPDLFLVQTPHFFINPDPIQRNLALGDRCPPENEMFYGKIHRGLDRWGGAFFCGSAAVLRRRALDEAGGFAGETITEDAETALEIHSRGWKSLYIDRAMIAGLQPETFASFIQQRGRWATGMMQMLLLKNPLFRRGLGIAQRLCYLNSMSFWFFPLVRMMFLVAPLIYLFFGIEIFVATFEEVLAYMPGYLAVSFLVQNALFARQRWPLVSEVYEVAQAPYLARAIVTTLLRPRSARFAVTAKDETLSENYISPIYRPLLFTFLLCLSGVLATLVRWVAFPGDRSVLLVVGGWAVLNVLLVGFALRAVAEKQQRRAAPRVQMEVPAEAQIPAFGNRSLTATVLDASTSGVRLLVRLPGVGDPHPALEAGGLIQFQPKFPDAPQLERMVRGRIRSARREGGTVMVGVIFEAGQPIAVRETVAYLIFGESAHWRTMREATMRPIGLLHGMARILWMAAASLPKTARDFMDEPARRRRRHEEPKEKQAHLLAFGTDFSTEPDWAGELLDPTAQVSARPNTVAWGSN
T2 sequence (Q3J126 21-725 partner): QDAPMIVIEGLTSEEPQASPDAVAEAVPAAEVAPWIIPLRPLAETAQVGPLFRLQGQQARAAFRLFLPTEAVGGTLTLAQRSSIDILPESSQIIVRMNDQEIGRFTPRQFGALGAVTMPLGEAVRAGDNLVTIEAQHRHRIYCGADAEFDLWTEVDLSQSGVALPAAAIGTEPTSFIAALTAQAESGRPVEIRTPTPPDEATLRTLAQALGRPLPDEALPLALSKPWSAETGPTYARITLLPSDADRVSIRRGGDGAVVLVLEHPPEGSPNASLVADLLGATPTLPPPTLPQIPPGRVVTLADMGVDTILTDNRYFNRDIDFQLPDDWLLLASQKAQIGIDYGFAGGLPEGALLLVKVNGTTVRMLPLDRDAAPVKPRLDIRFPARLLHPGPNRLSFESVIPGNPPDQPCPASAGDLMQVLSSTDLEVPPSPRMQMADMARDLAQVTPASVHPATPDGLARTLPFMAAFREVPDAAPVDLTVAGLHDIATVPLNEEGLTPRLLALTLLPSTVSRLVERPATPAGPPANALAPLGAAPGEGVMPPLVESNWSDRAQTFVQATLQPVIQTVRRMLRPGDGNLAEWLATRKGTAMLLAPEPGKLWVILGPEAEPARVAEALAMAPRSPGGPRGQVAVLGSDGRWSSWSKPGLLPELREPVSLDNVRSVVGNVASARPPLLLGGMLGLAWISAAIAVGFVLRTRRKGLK
Description: as §1, §2

BcsA-Arg580Ala complex = experiment: Isothermal titration calorimetry, c-di-GMP into BcsA-R580A complex; format: binding, Rhodobacter sphaeroides; settings: BcsA-R580A in 1 mM LFCE14, 25° C.; read-out: Kd of c-di-GMP (ITC)
Description: as §1, §2

[3] = target: T1, Rhodobacter sphaeroides BcsA-B complex, BcsA variant R580A (Arg580Ala; parent BcsA SEQ ID NO: 1), BcsB SEQ ID NO: 3; format: biochemical; settings: c-di-GMP more than 50-fold above its dissociation constant
[4] = target: T3, Rhodobacter sphaeroides BcsA-B complex (cellulose synthase), wild type, BcsA SEQ ID NO: 1, BcsB SEQ ID NO: 3 (Cereibacter sphaeroides, UniProt Q3J125); experiment: Enzyme-coupled (PK/LDH, NADH oxidation) cellulose synthase assay, ND-reconstituted BcsA-B; format: biochemical; settings: titration of UDP-Glc at increasing c-di-GMP concentrations
T3 construct: pETDuet, E. coli C43; purified, reconstituted in nanodiscs, proteoliposomes or detergent
T3 sequence (Q3J125 1-788): T2 sequence (Q3J125 1-788)
T3 sequence (Q3J126 21-725 partner): T2 sequence (Q3J126 21-725 partner)

T1 sequence (Q3J125 entry or part of it R580A, one chain of several): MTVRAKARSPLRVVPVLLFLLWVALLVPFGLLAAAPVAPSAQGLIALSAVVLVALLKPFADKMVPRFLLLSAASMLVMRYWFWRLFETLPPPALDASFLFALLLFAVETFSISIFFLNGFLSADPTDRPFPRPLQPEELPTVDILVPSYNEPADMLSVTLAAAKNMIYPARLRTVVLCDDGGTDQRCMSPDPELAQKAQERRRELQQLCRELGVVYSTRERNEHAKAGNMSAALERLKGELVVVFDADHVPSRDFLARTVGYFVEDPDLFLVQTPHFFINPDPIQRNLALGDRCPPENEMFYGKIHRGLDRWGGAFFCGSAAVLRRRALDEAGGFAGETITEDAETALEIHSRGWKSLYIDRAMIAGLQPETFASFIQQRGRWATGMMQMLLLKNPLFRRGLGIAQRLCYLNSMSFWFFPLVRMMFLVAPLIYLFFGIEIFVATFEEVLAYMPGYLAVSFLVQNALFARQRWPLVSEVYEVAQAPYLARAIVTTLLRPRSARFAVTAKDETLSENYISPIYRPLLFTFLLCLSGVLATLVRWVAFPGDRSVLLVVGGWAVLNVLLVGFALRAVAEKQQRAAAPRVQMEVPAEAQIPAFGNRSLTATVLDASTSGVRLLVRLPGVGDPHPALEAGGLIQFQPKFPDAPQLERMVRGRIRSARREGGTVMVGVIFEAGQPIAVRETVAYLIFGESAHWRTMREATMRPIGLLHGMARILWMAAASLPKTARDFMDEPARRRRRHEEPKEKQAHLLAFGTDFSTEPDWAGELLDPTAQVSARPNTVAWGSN

`Nc1nc2c(ncn2[C@@H]2O[C@@H]3COP(=O)(O)O[C@H]4[C@@H](O)[C@H](n5cnc6c(=O)[nH]c(N)nc65)O[C@@H]4COP(=O)(O)O[C@H]3[C@H]2O)c(=O)[nH]1` [c-di-GMP, cyclic dimeric guanosine monophosphate] was tested, and the Kd [1] was 1.6 µM, the “stoichiometry of c-di-GMP binding” value ([1]; ITC, 1 mM LFCE14, 25° C.) was ~0.5 and the Kd [2] was 0.4 µM. The Kd (BcsA-Arg580Ala complex) was 1.6 µM, the “stimulation of cellulose biosynthesis by c-di-GMP” value [3] was “no further stimulation” and the “effect of c-di-GMP on BcsA's apparent affinity for UDP-Glc” value [4] was “does not alter BcsA's apparent affinity for UDP-Glc”.
